The results in this text go back to US11155586B2, “Cystine knot scaffold platform” (Genentech, Inc., priority 2015, dated 2021).

Positions of bridges follow the written chain, without caps; N, C: chain ends. Residues, ends and D or L forms follow the SMILES beside them.

For one assay, the target named is T1, hVEGF-A (8-109) (Homo sapiens, UniProt P15692).
T1 sequence (P15692 34-135 isoform P15692-4): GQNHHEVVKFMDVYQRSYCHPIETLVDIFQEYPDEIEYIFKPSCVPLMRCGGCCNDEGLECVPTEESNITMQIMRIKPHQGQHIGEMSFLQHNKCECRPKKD
The experiment in a line: SPR binding assay (BIACORE 3000, 37° C.). The following applies: for effect of F8Y mutation on affinity/potency: SPR affinity (Table 37) and cellular IC50 (Table 38), vs variant without F8Y; for kd: Table 37, surface plasmon resonance, VEGF-A. The method, then:
Depending on the format of the assay either a streptavidin sensor (SA) or a dextran-coated (CM5) sensor was utilized as described below.
For use with the SA sensor, VEGF-A was first biotinylated (no more than 2 biotin/VEGF-A) by incubating the protein with EZ-link NHS-PEG4-Biotin (Pierce) in a 1:1.5 molar ratio respectively, in PBS for 2 hours on ice. Reaction was then quenched by addition of 10 molar excess of Glycine pH 8.0 and the sample was buffer exchanged into PBS using an Amicon 0.5 mL 3000 MWCO ultra-centrifugal filters (EMD Millipore). The biotinylation state of the protein was verified by LC-MS analysis. Biotinylated VEGF-A was then captured on the surface until a resonance unit (RU) signal of about ˜400. For immobilization of VEGF-A on CM5 sensor, the surface was first activated with a mixture of N-ethyl-N′-(3-dimethylaminopropyl)carbodiimide hydrochloride and N-hydroxysuccinimide (EDC/NHS) according to the supplier instructions. VEGF-A was then diluted into coupling buffer (0.1 M Acetate Buffer, pH 5.0) and injected until the signal reached about ˜400 RU followed by a wash with 1 M ethanolamine pH 8.0 to quench remaining activated sites.
Following the capture step, a series of the peptide concentrations were prepared in HBS-EP buffer with matching DMSO concentrations to 0.1% and injected at a flow rate of […]. The resulting sensorgrams were then analyzed using a 1:1 binding model to obtain kinetic data and affinities using Scrubber 2.0 (BioLogic Software).
(In SPR one partner is held on a chip, and binding of the other changes the refractive index at the surface.)

In a further assay the target is T2, hVEGF(8-109) (Homo sapiens, UniProt P15692).
T2 construct: hVEGF(8-109) or BSA were coated on 384-well MAXISORP™ immunoplates
T2 sequence (P15692 214-315): T1 sequence (P15692 34-135 isoform P15692-4)
The experiment in a line: Spot phage ELISA. In kind it is binding. How it is done:
After four rounds of binding selection, individual phage clones were picked and inoculated into 450 μl 2YT media containing 50 µg/ml Carbenecillin and M13-KO7 helper phage in 96-well blocks, which were grown at 37° C. overnight. The supernatant was analyzed with spot phage ELISA as follows: hVEGF(8-109) or BSA were coated on 384-well MAXISORP™ immunoplates and phage supernatant diluted (1:3) with PBT buffer was added to the wells. The plates were washed and bound phage was detected with anti-M13-HRP followed by TMB substrate. In these assays, phage binding to BSA alone was tested in parallel to assess background binding. Clones whose binding signals for hVEGF-A (8-109) were more than 3 times higher than to BSA (background) were considered positive. Positive clones were subjected to DNA sequence analysis.
Background: ELISA stands for enzyme-linked immunosorbent assay.

The mark [1] stands for this setting: loop 2 variants based on VEGF_CKP9.63 framework, Table 27.
The mark [2] stands for this setting: loop 2 variants based on 9.54 framework, Table 26.

As for `CC[C@H](C)[C@@H]1NC(=O)[C@H](CC(N)=O)NC(=O)[C@@H](NC(=O)CN)CSSC[C@@H](C(=O)N[C@H](C(=O)N[C@H]2CSSC[C@@H](C(=O)NCC(=O)O)NC(=O)[C@H](CO)NC(=O)[C@H](CCC(N)=O)NC(=O)[C@H](Cc3ccc(O)cc3)NC(=O)[C@H](Cc3ccc(O)cc3)NC(=O)[C@H](CCC(N)=O)NC2=O)C(C)C)NC(=O)CNC(=O)[C@H](C)NC(=O)[C@H](CC(C)C)NC(=O)[C@@H]2CSSC[C@H](NC(=O)CNC(=O)[C@H](Cc3c[nH]c4ccccc34)NC(=O)[C@H](Cc3ccc(O)cc3)NC(=O)[C@@H]3CCCN3C(=O)[C@H](CC(C)C)NC(=O)[C@H](CCSC)NC1=O)C(=O)NCC(=O)N[C@@H](CCCNC(=N)N)C(=O)N[C@@H](CC(=O)O)C(=O)N[C@@H](Cc1ccccc1)C(=O)N[C@@H](CCC(=O)O)C(=O)N2` [VEGF_CKP9.54.90.F8Y] (H-GCNIMLPYWGCGRDFECLAGCVCQYYQSCG-OH; disulfide 2-21, 11-17, 23-29 (inferred); N-terminus and C-terminus assumed), at hVEGF-A (8-109), the “effect of F8Y mutation on affinity/potency” value is recorded as “modest improvement” and the kd stood at 0.27.

For `CC[C@H](C)[C@@H]1NC(=O)[C@H](CC(N)=O)NC(=O)[C@@H](NC(=O)CN)CSSC[C@@H](C(=O)N[C@H](C(=O)N[C@H]2CSSC[C@@H](C(=O)NCC(=O)O)NC(=O)[C@H](CO)NC(=O)[C@H](CCC(N)=O)NC(=O)[C@H](Cc3ccc(O)cc3)NC(=O)[C@H](Cc3ccc(O)cc3)NC(=O)[C@H](CCC(N)=O)NC2=O)C(C)C)NC(=O)CNC(=O)[C@H](C)NC(=O)[C@H](CC(C)C)NC(=O)[C@@H]2CSSC[C@H](NC(=O)CNC(=O)[C@H](Cc3c[nH]c4ccccc34)NC(=O)[C@H](Cc3ccc(O)cc3)NC(=O)[C@@H]3CCCN3C(=O)[C@H](CC(C)C)NC(=O)[C@H](CCSC)NC1=O)C(=O)NCC(=O)N[C@@H](CCC(N)=O)C(=O)N[C@@H](CO)C(=O)N[C@@H](Cc1ccccc1)C(=O)N[C@@H](CCC(=O)O)C(=O)N2` [VEGF_CKP9.54.1.F8Y] (H-GCNIMLPYWGCGQSFECLAGCVCQYYQSCG-OH; disulfide 2-21, 11-17, 23-29 (inferred); N-terminus and C-terminus assumed), at hVEGF-A (8-109), the “effect of F8Y mutation on affinity/potency” value was “modest improvement” and the kd turned out to be 0.38.

For `CC(C)C[C@@H]1NC(=O)[C@@H]2CSSC[C@H](NC(=O)CNC(=O)[C@H](Cc3c[nH]c4ccccc34)NC(=O)[C@H](CC(C)C)NC(=O)[C@@H]3CCCN3C(=O)[C@H](CCC(=O)O)NC(=O)[C@H](Cc3ccccc3)NC(=O)[C@H](CC(C)C)NC(=O)[C@H](CCCCN)NC(=O)[C@@H](NC(=O)CN)CSSC[C@@H](C(=O)N[C@H](C(=O)N[C@H]3CSSC[C@@H](C(=O)NCC(=O)O)NC(=O)[C@H](CO)NC(=O)[C@H](CCC(=O)O)NC(=O)[C@H](Cc4ccc(O)cc4)NC(=O)[C@H](Cc4c[nH]c5ccccc45)NC(=O)[C@H](CCCNC(=N)N)NC3=O)C(C)C)NC(=O)CNC(=O)[C@H](C)NC1=O)C(=O)N[C@@H](CCCCN)C(=O)N[C@@H](CCC(N)=O)C(=O)N[C@@H](CC(=O)O)C(=O)N[C@@H](CO)C(=O)N[C@@H](CC(=O)O)C(=O)N2` [VEGF_CKP9.96] (H-GCKLFEPLWGCKQDSDCLAGCVCRWYESCG-OH; disulfide 2-21, 11-17, 23-29; N-terminus and C-terminus assumed), the “S/N (signal to noise ratio as compared to BSA control)” value at hVEGF(8-109) (Table 24) came to 18.4. The same compound yielded an ELISA on hVEGF(8-109) (VEGF_CKP9 Loop1/Loop5 affinity-matured variants, Table 24) of 1.2.

Consider “GCDVMQPYWGCAGDELCLAGCVCHWYNSCG [VEGF_CKP9.63.30]”, for which the “S/N (signal to noise ratio as compared to BSA control)” value with hVEGF(8-109) (Table 27) amounted to 26.0. In the assay with hVEGF(8-109) (setting [1]), this compound showed an ELISA of 2.0.

Consider `CC(C)C[C@@H]1NC(=O)[C@@H]2CSSC[C@@H](C(=O)NCC(=O)O)NC(=O)[C@H](Cc3ccccc3)NC(=O)CNC(=O)[C@H](CC(N)=O)NC(=O)[C@@H]3CCCN3C(=O)CNC(=O)[C@@H]3CSSC[C@H](NC(=O)[C@H](Cc4ccc(O)cc4)NC(=O)[C@H](CCC(N)=O)NC(=O)[C@H](CCCCN)NC(=O)[C@H](Cc4ccccc4)NC(=O)[C@H](CCCNC(=N)N)NC(=O)[C@H]([C@@H](C)O)NC(=O)[C@H]([C@@H](C)O)NC(=O)[C@@H]4CCCN4C(=O)[C@@H](NC(=O)CN)CSSC[C@H](NC(=O)CNC(=O)[C@H](C)NC1=O)C(=O)N[C@@H](C(C)C)C(=O)N3)C(=O)N[C@@H](CCCCN)C(=O)N[C@@H](CCC(N)=O)C(=O)N[C@@H](CC(=O)O)C(=O)N[C@@H](CO)C(=O)N[C@@H](CC(=O)O)C(=O)N2` [VEGF_CKP6] (H-GCPTTRFKQYCKQDSDCLAGCVCGPNGFCG-OH; disulfide 2-21, 11-23, 17-29; N-terminus and C-terminus assumed), for which the “S/N (signal to noise ratio as compared to BSA control)” value on hVEGF(8-109) (Table 19) worked out at 51.9. Further, the ELISA on hVEGF(8-109) (spot phage ELISA signal, EETI-II-based binders against hVEGF-A, Table 19) came out at 3.5.

For `CC[C@H](C)[C@@H]1NC(=O)[C@H](CC(N)=O)NC(=O)[C@@H](NC(=O)CN)CSSC[C@@H](C(=O)N[C@H](C(=O)N[C@H]2CSSC[C@@H](C(=O)NCC(=O)O)NC(=O)[C@H](CO)NC(=O)[C@H](CCC(N)=O)NC(=O)[C@H](Cc3ccc(O)cc3)NC(=O)[C@H](Cc3ccc(O)cc3)NC(=O)[C@H](CCC(N)=O)NC2=O)C(C)C)NC(=O)CNC(=O)[C@H](C)NC(=O)[C@H](CC(C)C)NC(=O)[C@@H]2CSSC[C@H](NC(=O)CNC(=O)[C@H](Cc3c[nH]c4ccccc34)NC(=O)[C@H](Cc3ccccc3)NC(=O)[C@@H]3CCCN3C(=O)[C@H](CC(C)C)NC(=O)[C@H](CCSC)NC1=O)C(=O)NCC(=O)N[C@@H](CC(C)C)C(=O)N[C@@H](CC(=O)O)C(=O)N[C@@H](Cc1ccc(O)cc1)C(=O)N[C@@H](CC(=O)O)C(=O)N2` [VEGF_CKP9.54.2] (H-GCNIMLPFWGCGLDYDCLAGCVCQYYQSCG-OH; disulfide 2-21, 11-17, 23-29; N-terminus and C-terminus assumed), the “S/N (signal to noise ratio as compared to BSA control)” value on hVEGF(8-109) (Table 26) was 26. This compound gave an ELISA on hVEGF(8-109) (setting [2]) of 0.1.

As to “GCDVMQPYWGCGADLSCLAGCVCHWYNSCG [VEGF_CKP9.63.62]”, in the assay with hVEGF(8-109) (Table 27), the “S/N (signal to noise ratio as compared to BSA control)” value was 25.4. This compound also had an ELISA with hVEGF(8-109) (setting [1]) of 1.8.

In the case of “GCDVMQPYWGCGENLACLAGCVCHWYNSCG [VEGF_CKP9.63.54]”, the “S/N (signal to noise ratio as compared to BSA control)” value with hVEGF(8-109) (Table 27) amounted to 19.9. In addition, the ELISA with hVEGF(8-109) (setting [1]) is recorded as 1.4.

For “GCDVMQPYWGCGMDIECLAGCVCHWYNSCG [VEGF_CKP9.63.16]”, the “S/N (signal to noise ratio as compared to BSA control)” value with hVEGF(8-109) (Table 27) was found to be 10.3. The ELISA in the assay with hVEGF(8-109) (setting [1]) was determined as 2.2.

For “GCDVMQPYWGCDGDFDCLAGCVCHWYNSCG [VEGF_CKP9.63.39]”, the “S/N (signal to noise ratio as compared to BSA control)” value with hVEGF(8-109) (Table 27) is on record as 18.9. Moreover, the ELISA in the assay with hVEGF(8-109) (setting [1]) came out at 1.6.

On to `CC[C@H](C)[C@@H]1NC(=O)[C@H](CC(N)=O)NC(=O)[C@@H](NC(=O)CN)CSSC[C@@H](C(=O)N[C@H](C(=O)N[C@H]2CSSC[C@@H](C(=O)NCC(=O)O)NC(=O)[C@H](CO)NC(=O)[C@H](CCC(N)=O)NC(=O)[C@H](Cc3ccc(O)cc3)NC(=O)[C@H](Cc3ccc(O)cc3)NC(=O)[C@H](CCC(N)=O)NC2=O)C(C)C)NC(=O)CNC(=O)[C@H](C)NC(=O)[C@H](CC(C)C)NC(=O)[C@@H]2CSSC[C@H](NC(=O)CNC(=O)[C@H](Cc3c[nH]c4ccccc34)NC(=O)[C@H](Cc3ccccc3)NC(=O)[C@@H]3CCCN3C(=O)[C@H](CC(C)C)NC(=O)[C@H](CCSC)NC1=O)C(=O)NCC(=O)N1CCC[C@H]1C(=O)N[C@@H](CC(=O)O)C(=O)N[C@@H](CC(C)C)C(=O)N[C@@H](CCC(N)=O)C(=O)N2` [VEGF_CKP9.54.59] (H-GCNIMLPFWGCGPDLQCLAGCVCQYYQSCG-OH; disulfide 2-21, 11-17, 23-29; N-terminus and C-terminus assumed), for which the “S/N (signal to noise ratio as compared to BSA control)” value on hVEGF(8-109) (Table 26) came to 35.4. The compound also came in with an ELISA at hVEGF(8-109) (setting [2]) of 2.3.

For the compound “GCDVMQPYWGCGDDLECLAGCVCHWYNSCG [VEGF_CKP9.63.14]”, in the assay with hVEGF(8-109) (Table 27), the “S/N (signal to noise ratio as compared to BSA control)” value is 21.3. Besides, in the assay with hVEGF(8-109) (setting [1]), the ELISA was 1.5.
